Experimental data from ChEMBL document CHEMBL1201862, “PubChem BioAssay data set” (2004).
Active and inactive are the calls of the source.

What was measured:
[1] = target: T1, E3 ubiquitin-protein ligase XIAP (Homo sapiens, UniProt P98170); assay: Counter Screen using XIAP-Bir3 for Chemical Antagonists of Bir1/2 domains of IAP-family anti-apoptotic proteins. [Related pubchem assays (depositor defined):AID1018, AID1449, AID1514, AID1638, AID1749, AID1750, AID488957, AID488963]
[2] = target: T1, E3 ubiquitin-protein ligase XIAP; assay: small molecules displacing peptide from XIAP – biochemical, IAP family, fluorescence polarization (AID 1018); format: functional
Kallikrein-7 = Kallikrein-7 (Homo sapiens, UniProt P49862); assay: Fluorescence Intensity-based biochemical primary high throughput dose response assay to identify activators of kallikrein-7 (K7) zymogen.
Cytochrome P450 3A4 = Cytochrome P450 3A4 (Homo sapiens, UniProt P08684);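 further: CYP3A4 tested as one member of a cytochrome P450 panel screen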
Cytochrome P450 2C9 = Cytochrome P450 2C9 (Homo sapiens, UniProt P11712)
[3] = target: T2, Histone-lysine N-methyltransferase NSD2 (Homo sapiens, UniProt O96028); format: biochemical
T2 sequence (O96028 whole entry): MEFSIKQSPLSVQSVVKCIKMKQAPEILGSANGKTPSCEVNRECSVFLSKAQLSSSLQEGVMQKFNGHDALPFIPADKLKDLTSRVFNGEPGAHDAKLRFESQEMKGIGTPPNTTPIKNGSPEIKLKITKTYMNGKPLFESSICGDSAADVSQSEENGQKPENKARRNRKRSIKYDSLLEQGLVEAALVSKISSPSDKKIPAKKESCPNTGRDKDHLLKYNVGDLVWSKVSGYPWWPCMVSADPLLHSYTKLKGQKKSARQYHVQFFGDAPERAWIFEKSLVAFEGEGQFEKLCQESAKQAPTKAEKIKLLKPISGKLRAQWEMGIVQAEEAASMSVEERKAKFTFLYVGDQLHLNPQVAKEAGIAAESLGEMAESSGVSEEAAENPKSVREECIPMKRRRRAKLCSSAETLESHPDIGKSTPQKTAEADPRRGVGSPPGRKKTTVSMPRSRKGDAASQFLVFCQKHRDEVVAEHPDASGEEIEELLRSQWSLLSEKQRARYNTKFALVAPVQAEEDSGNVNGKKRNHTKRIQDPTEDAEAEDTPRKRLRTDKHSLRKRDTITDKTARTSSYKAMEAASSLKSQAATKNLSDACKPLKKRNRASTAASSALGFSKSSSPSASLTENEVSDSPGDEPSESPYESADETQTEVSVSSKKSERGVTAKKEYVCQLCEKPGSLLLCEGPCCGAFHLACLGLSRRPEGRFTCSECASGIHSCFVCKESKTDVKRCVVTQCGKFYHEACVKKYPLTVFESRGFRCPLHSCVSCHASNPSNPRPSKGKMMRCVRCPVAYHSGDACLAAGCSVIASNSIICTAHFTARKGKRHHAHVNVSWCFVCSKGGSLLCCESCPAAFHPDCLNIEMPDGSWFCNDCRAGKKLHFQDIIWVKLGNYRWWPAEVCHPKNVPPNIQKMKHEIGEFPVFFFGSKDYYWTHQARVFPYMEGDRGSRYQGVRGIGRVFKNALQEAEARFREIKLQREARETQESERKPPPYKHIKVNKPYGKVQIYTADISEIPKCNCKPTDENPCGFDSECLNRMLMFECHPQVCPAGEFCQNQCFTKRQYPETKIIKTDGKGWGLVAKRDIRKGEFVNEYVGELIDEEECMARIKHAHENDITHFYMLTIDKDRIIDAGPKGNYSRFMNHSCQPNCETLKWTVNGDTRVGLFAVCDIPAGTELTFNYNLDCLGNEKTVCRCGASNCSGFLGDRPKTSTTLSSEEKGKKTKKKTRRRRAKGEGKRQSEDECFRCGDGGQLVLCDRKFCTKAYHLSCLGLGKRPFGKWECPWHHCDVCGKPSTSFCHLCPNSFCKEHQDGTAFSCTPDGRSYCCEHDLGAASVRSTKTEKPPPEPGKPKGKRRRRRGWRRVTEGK

[4] = target: T3, 1-phosphatidylinositol 4,5-bisphosphate phosphodiesterase gamma-1 (Homo sapiens, UniProt P19174); assay: Counterscreen for inhibitors of phospholipase C isozymes (PLC-B3): Fluorescence-based biochemical high throughput dose response assay to identify inhibitors of phospholipase C isozymes (PLC-gamma1).
T3 sequence (P19174 whole entry): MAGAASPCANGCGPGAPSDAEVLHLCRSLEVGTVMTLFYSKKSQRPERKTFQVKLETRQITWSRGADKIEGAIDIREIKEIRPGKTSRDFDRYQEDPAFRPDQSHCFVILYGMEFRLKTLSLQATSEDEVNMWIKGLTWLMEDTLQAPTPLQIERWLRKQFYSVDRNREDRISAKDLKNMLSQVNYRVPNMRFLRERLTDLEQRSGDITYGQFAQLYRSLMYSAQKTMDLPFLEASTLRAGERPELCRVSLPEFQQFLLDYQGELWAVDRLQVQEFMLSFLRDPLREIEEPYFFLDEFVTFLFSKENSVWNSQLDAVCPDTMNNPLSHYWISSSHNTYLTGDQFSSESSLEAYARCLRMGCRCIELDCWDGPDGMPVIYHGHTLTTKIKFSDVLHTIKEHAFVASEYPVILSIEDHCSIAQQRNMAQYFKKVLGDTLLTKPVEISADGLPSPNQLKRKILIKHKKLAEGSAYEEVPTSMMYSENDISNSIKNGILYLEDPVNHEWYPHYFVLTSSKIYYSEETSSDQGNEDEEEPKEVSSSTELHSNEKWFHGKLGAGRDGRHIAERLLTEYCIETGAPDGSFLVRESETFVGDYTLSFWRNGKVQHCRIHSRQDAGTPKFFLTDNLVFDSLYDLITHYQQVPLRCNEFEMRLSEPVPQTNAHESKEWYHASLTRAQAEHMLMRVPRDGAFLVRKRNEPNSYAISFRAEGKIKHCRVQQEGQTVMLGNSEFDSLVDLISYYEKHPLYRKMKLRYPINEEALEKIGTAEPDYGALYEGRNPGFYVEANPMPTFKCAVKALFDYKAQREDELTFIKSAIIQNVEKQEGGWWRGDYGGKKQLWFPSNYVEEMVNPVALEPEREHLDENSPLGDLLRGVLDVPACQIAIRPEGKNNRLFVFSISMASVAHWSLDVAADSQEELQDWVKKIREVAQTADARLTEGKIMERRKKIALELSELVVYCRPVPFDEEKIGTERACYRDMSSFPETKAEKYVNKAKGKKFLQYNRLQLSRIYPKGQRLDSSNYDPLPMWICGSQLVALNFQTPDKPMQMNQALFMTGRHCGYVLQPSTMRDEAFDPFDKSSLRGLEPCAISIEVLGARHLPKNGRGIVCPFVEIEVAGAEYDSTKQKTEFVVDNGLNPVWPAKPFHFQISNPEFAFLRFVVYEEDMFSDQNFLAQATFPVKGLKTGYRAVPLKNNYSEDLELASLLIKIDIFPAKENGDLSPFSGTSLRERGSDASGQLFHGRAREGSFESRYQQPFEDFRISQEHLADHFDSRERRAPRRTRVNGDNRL

[5] = target: T4, 1-phosphatidylinositol 4,5-bisphosphate phosphodiesterase beta-3 (Homo sapiens, UniProt Q01970); assay: Fluorescence-based biochemical high throughput dose response assay to identify inhibitors of phospholipase C isozymes (PLC-B3).
T4 sequence (Q01970 whole entry): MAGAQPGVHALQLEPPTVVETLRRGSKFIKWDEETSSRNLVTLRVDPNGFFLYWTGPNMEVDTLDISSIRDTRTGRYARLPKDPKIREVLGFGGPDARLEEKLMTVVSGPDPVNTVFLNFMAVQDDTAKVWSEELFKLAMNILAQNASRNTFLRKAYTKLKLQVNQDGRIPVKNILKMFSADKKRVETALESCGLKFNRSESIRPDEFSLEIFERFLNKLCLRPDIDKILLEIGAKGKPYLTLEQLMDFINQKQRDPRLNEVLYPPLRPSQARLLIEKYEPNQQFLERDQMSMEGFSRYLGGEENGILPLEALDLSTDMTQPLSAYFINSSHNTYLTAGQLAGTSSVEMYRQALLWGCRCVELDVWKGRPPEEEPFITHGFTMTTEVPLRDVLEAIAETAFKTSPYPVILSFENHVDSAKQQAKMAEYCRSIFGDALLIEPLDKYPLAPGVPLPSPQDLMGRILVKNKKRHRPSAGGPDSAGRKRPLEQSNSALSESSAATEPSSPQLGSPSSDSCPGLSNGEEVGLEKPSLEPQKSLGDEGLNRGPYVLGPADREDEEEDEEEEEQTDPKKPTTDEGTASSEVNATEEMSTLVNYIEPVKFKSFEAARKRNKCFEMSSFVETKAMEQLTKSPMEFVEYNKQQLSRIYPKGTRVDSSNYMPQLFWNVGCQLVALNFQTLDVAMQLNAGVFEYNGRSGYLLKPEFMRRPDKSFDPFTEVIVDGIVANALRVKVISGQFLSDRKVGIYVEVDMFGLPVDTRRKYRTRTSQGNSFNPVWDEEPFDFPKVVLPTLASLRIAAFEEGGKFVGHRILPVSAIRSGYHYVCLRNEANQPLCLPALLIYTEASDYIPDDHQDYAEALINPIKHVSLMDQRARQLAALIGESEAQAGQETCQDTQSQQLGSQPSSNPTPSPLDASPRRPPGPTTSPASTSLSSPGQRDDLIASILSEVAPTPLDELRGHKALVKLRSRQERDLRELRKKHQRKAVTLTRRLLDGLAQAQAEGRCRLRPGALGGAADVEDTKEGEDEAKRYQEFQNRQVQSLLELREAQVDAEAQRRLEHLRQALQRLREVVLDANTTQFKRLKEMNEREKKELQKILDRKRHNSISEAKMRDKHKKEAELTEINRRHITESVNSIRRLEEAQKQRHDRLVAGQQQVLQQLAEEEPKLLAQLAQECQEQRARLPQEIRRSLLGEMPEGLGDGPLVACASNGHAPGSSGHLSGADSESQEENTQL

[6] = mitochondrial function rescue without frataxin homolog – Friedreich's ataxia, plus single-dose screen, dose response (AID 1465); format: functional;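 further: yeast depleted of Yfh1p frataxin homolog grown on glycerol needing respiration; WST-1 tetrazolium dye reduction as measure of cellular dehydrogenase metabolic activity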
[7] = target: T5, Mannose-6-phosphate isomerase (Homo sapiens, UniProt P34949); assay: MPI inhibition at elevated mannose 6-phosphate – biochemical, fluorescence intensity, high mannose 6-phosphate, primary screen (AID 1220)
T5 sequence (P34949 whole entry): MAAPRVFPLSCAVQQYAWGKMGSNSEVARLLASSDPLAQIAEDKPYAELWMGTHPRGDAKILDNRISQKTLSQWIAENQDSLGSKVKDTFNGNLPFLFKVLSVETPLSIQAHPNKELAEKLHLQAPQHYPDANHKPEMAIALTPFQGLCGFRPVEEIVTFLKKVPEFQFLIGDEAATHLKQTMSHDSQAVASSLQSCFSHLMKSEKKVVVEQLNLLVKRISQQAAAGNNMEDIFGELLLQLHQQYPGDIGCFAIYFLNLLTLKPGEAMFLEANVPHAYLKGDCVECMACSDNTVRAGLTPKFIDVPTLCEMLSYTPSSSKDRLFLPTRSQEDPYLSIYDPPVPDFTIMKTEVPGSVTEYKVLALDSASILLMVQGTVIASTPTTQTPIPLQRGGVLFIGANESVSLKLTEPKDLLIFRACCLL

[8] = growth inhibition of yeast DHODH-expressing 3D7 parasites – SYBR Green, dry powder samples, dose response (AID 1159570); format: functional, cell-based;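 further: parasite growth measured after 72 hours of compound exposure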
[9] = toxicity to human HepG2 hepatoma cells – cell-based, plate reader, dry powder samples, cytotoxicity control, dose response (AID 1159569); format: functional;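 further: inhibitor potency with signal falling toward the positive control level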
[10] = P. falciparum Dd2 growth inhibitors, dose response, SYBR Green, cherry-picked samples (AID 1159567); format: functional, cell-based
[11] = Dd2 malaria parasite growth inhibition potency – SYBR Green, dry powder samples, dose response (AID 1159566); format: functional, cell-based;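 further: potency for growth inhibition with lower SYBR green DNA signal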
[12] = growth inhibition of PfATP4-mutant resistant parasites – NITD609-resistant line, SYBR Green, dry powder, dose response (AID 1159571); format: functional, cell-based;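 further: parasites synchronized at ring stage by sorbitol before testing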

Kallikrein-7, sequence (P49862 whole entry): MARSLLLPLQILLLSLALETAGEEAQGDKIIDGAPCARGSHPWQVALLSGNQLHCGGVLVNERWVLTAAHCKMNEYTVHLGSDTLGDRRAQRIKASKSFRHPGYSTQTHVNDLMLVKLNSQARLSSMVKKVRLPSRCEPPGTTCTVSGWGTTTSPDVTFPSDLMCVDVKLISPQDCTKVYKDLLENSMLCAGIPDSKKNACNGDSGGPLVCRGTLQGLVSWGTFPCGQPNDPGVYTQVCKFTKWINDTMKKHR
T1 sequence (P98170 whole entry): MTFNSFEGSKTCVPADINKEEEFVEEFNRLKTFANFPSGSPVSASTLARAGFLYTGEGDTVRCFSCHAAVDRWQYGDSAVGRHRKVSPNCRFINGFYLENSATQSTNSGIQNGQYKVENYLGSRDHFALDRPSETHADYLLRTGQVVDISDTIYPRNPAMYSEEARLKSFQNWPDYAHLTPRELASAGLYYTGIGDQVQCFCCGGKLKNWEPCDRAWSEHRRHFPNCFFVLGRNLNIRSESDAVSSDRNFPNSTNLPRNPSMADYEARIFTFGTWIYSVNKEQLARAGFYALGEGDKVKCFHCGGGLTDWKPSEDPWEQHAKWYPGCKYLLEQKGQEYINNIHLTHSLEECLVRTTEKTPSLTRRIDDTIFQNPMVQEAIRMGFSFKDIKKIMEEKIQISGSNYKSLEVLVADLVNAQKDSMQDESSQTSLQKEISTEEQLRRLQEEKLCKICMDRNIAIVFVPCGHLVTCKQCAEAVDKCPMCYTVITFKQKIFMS
Cytochrome P450 3A4, sequence (P08684 whole entry): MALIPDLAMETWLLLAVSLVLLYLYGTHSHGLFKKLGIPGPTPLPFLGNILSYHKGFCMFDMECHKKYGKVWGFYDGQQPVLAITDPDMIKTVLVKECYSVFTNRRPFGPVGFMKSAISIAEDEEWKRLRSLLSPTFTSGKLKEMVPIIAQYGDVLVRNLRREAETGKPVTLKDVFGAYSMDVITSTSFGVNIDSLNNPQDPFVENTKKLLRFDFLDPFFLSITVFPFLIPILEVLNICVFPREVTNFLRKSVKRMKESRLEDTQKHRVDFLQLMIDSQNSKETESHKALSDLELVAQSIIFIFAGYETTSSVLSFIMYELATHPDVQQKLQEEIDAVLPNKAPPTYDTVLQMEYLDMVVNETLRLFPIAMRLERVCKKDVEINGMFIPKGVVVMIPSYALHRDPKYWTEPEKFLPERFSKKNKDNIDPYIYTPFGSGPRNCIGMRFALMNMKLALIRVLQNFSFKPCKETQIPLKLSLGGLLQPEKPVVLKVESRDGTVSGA
Cytochrome P450 2C9, sequence (P11712 whole entry): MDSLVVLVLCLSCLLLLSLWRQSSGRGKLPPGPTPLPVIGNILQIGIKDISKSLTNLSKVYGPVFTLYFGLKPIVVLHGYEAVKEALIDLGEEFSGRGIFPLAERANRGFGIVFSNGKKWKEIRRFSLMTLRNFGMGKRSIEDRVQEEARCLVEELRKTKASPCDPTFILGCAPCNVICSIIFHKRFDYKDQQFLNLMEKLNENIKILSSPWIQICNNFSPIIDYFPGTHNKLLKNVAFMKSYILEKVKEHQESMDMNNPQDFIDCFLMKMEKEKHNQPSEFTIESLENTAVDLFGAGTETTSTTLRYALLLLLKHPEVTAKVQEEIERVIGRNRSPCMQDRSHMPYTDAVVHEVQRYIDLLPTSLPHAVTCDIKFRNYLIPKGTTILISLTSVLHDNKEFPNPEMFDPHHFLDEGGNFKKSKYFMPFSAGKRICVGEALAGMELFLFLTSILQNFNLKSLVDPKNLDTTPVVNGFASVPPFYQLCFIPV

COc1ccc(S(=O)(=O)N2CCCC2)c(C)c1C
IC50 [1]: > 100 µM (inactive) | IC50 [2]: > 100 µM (not active)

O=C(c1ccc(S(=O)(=O)NCC2CCCO2)cc1)N1CCN(c2cccc(Cl)c2)CC1 (stereo unspecified)
IC50 [1]: > 100 µM (inactive) | IC50 [2]: > 100 µM (not active)

C=CCNc1sc(C(=O)c2ccc(C)cc2)c(N)c1C#N
EC50 (Kallikrein-7): 9.46 µM (active) | AC50 (Cytochrome P450 3A4): 31.6 µM (inconclusive) | AC50 (Cytochrome P450 2C9): inconclusive

COc1cc(NC(=O)COc2ccccc2Cl)ccc1NC(=O)c1cccs1
EC50 (Kallikrein-7): 8.31 µM (active)

CCN(CC)CCNC(=O)/C(=C\c1cccn1C)NC(=O)c1cccs1
IC50 [1]: > 100 µM (inactive) | IC50 [2]: > 100 µM (not active) | AC50 [3]: > 20 µM (inactive)

Oc1c2nc3ccccc3c-2ncn1CCN1CCOCC1
IC50 [4]: > 122 µM (inactive) | IC50 [5]: > 122 µM (inactive)

O=C(C[C@H]1C[C@H](C(=O)N2CCCCC2)[C@@]2(CCc3ccccc3)c3[nH]c4cc(-c5ccco5)ccc4c3CCN2C1=O)NCCN1CCOCC1
EC50 (Kallikrein-7): 8.82 µM (active)

O=[N+]([O-])c1ccc(N2CCCC2)cc1N/N=C1\CN2CCC1CC2
EC50 [6]: > 100 µM (active)

Cc1ccc(O)c(/N=C/c2ccc(C)s2)c1
IC50 [7]: > 50 µM (not active)

O=C(Nc1ccc(F)cc1)N1CCCCN2[C@H](CO)[C@H](c3ccc(C#Cc4ccccc4)cc3)[C@@H]2C1
AC50 [8]: 0.0201 µM (active) | AC50 [9]: 80.3 µM (active) | AC50 [10]: < 0.3 µM (active) | AC50 [11]: 0.0167 µM (active) | AC50 [12]: 0.0214 µM (active)

COc1ccc2c3c(n(C)c2c1)[C@H](CO)N(C(=O)Nc1ccc(F)cc1)CC31CCN(C)CC1
AC50 [8]: 4.11 µM (active) | AC50 [9]: 54.1 µM (active) | AC50 [10]: 2.67 µM (active) | AC50 [11]: 2.87 µM (active) | AC50 [12]: 4.61 µM (active)
